For series [1] the following is noted: cited from earlier work.
Series [2] relates to isolated working rat heart. Put plainly: Lignocaine alone in the isolated working rat heart. The note with it: lignocaine alone at 0.5, 1.0 and 1.5 mM. The text has this: Lignocaine is a local anaesthetic which blocks sodium fast channels and has antiarrhythmatic properties by reducing the magnitude of inward sodium current. The accompanying shortening of the action potential is thought to directly reduce calcium entry into the cell via Ca^2+ selective channels and Na^+/Ca^2+ exchange. Recent reports also implicate lignocaine with the scavenging of free radicals such as hydroxyl and singlet oxygen in the heart during reperfusion.

Series [3] concerns heart. Put plainly: Arrest with pinacidil plus local anaesthetics (Example 7). The note with it: arrest solutions with local anaesthetics. On the procedure:
Arrest solutions were made with pinacidil dissolved in 0.05% dimethysulfoxide (DMSO) (200 μM) the local anaesthetics prilocalne, procaine, mepivacaine and lignocaine in Krebs-Henseleit solution.

The conditions of series [4]: requires a carrier (DMSO); cited from earlier work.

Structures are written as SMILES.

Take `Nc1ncnc2c1ncn2[C@@H]1O[C@H](CO)[C@@H](O)[C@H]1O` [adenosine]: in series [1], the “half life in the blood” value was “about 10 seconds”. On to `CCN(CC)CC(=O)Nc1c(C)cccc1C` [lignocaine], for which, in series [2], the “functional recoveries” value is “highly variable functional recoveries”. On to `CC(N/C(=N\C#N)Nc1ccncc1)C(C)(C)C` (stereo not shown) [pinacidil], for which the “effectiveness compared with adenosine” value in series [3] is given as “not as effective as adenosine”. Besides, the “solubility in aqueous solutions” value in series [4] is “low solubility in aqueous solutions”.

(Values after patent US9320753B2, “Organ arrest, protection and preservation” (priority 1999, dated 2016).)
